{"source": "patent US10364216B2", "about": "“Alkenyl sulfate ester or salt thereof” (Kao Corporation, priority 2013, dated 2019)", "key": {"[1]": {"experiment": "Sweetness adjusting action on sucrose, aspartame, sucralose, glycyrrhizin (simultaneous intake)", "assay_type": "in vivo, human", "details": "5 mM, taken simultaneously with sweetener", "experimental": "To seven examiners, four kinds of 10 mL aqueous sucrose standard solutions (2.5, 5.0, 7.5 and 10.0 wt %) were presented. The examiners kept each of the solutions in their mouth for 5 seconds or so, and then spat the solution out, and were asked to consider the sweetness intensity at that time (0 to 15) to be 2.5, 5, 7.5 and 10, respectively. Next, the examiners kept 10 mL aqueous solution (7.5 wt %) of sucrose in their mouth for 5 seconds or so without knowing the kind and the concentration of the sweetener, and then spat the solution out, and compared the sweetness intensity at that time with that of the aqueous sucrose standard solution, and evaluated the sweetness intensity with a number in a range of 0 to 15. In addition, after 30 seconds, the examiners kept 10 mL pure water in their mouth, and then spat the solution out, and compared the sweetness intensity felt at that time with that of the aqueous sucrose standard solution, and evaluated the sweetness intensity in the same manner. Subsequently, the examiners were presented with 10 mL aqueous sucrose solution containing 5 mM trans-3-octenyl sulfate (7.5 wt %), and kept it in their mouth for 5 seconds or so, and then spat the solution out, and compared the sweetness intensity at that time with the sweetness intensity of the aqueous sucrose standard solution, and evaluated the sweetness intensity in the same manner. In addition, immediately after that, the examiners kept 10 mL pure water in their mouth for 5 seconds or so, and then spat the solution out, and compared the sweetness intensity at that time with that of the aqueous sucrose standard solution, and evaluated the sweetness intensity in the same manner. In addition, after 30 seconds, the examiners kept 10 mL pure water in their mouth, and then spat the solution out, and compared the sweetness intensity felt at that time with that of the aqueous sucrose standard solution, and evaluated the sweetness intensity in the same manner.\nTo seven examiners, 4 kinds of 10 mL aqueous sucrose standard solutions (2.5, 5.0, 7.5 and 10.0 wt %) were presented. The examiners kept each of the solutions in their mouth for 5 seconds or so, and then spat the solution out, and were asked to consider the sweetness intensity at that time (0 to 15) to be 2.5, 5, 7.5 and 10, respectively. Next, the examiners kept 10 mL aqueous solution of aspartame (494 ppm) in their mouth for 5 seconds or so without knowing the kind and the concentration of the sweetener, and then spat the solution out, and compared the sweetness intensity at that time with that of the aqueous sucrose standard solution, and evaluated the sweetness intensity with a number in a range of 0 to 15. The concentration of aspartame was prepared to have the same sweetness intensity as that of the aqueous sucrose solution (7.5 wt %) in accordance with the reference (Schiffman, S. S. et al. Chemical senses, 1999, 24, 439-447.). In addition, after 30 seconds, the examiners kept 10 mL pure water in their mouth, and then spat the solution out, and compared the sweetness intensity felt at that time with that of the aqueous sucrose standard solution, and evaluated the sweetness intensity in the same manner. Subsequently, the examiners were presented with 10 mL aqueous solution of aspartame containing 5 mM trans-3-octenyl sulfate (494 ppm), and kept it in their mouth for 5 seconds or so, and then spat the solution out, and compared the sweetness intensity at that time with the sweetness intensity of the sucrose standard solution, and evaluated the sweetness intensity in the same manner. In addition, after 30 seconds, the examiners kept 10 mL pure water in their mouth, and then spat the solution out, and compared the sweetness intensity felt at that time with that of the aqueous sucrose standard solution, and evaluated the sweetness intensity in the same manner. […]"}, "[2]": {"experiment": "Action of reinforcing sweetness (previous intake of trans-3-octenyl sulfate)", "assay_type": "in vivo, human", "details": "5 mM, 60 seconds before sucralose or glycyrrhizin 0.25 mM", "experimental": "To six examiners, 4 kinds of 10 mL aqueous solutions of sucrose standard (2.5, 5.0, 7.5 and 10.0 wt %) were presented. The examiners kept each of the solutions in their mouth for 5 seconds or so, and then spat the solution out, and were asked to consider the sweetness intensity at that time (0 to 15) to be 2.5, 5, 7.5 and 10, respectively. Next, the examiners kept 10 mL aqueous solution of sucralose (0.25 mM) in their mouth for 5 seconds or so without knowing the kind and the concentration of the sweetener, and then spat the solution out, and compared the sweetness intensity at that time with that of the aqueous sucrose standard solution, and evaluated the sweetness intensity with a number in a range of 0 to 15. Subsequently, the examiners kept 10 mL solution of 5 mM trans-3-octenyl sulfate in advance in their mouth for 5 seconds or so in advance, and then spat the solution out, and after passage of 60 seconds, the examiners kept 10 mL aqueous solution of sucralose (0.25 mM) in their mouth for 5 seconds or so, and then spat the solution out, and compared the sweetness intensity at that time with that of the aqueous sucrose standard solution, and evaluated the sweetness intensity with a number in a range of 0 to 15.\nTo six examiners, 4 kinds of 10 mL aqueous sucrose standard solutions (2.5, 5.0, 7.5 and 10.0 wt %) were presented. The examiners kept each of the solutions in their mouth for 5 seconds or so, and then spat the solution out, and were asked to consider the sweetness intensity at that time (0 to 15) to be 2.5, 5, 7.5 and 10, respectively. Next, the examiners kept 10 mL aqueous solution of glycyrrhizin (0.25 mM) in their mouth for 5 seconds or so without knowing the kind and the concentration of the sweetener, and then spat the solution out, and compared the sweetness intensity at that time with that of the aqueous sucrose standard solution, and evaluated the sweetness intensity with a number in a range of 0 to 15. Subsequently, the examiners kept 10 mL solution of 5 mM trans-3-octenyl sulfate in their mouth for 5 seconds or so in advance, and then spat the solution out, and after passage of 60 seconds, the examiners kept 10 mL aqueous solution of glycyrrhizin (0.25 mM) in their mouth for 5 seconds or so, and then spat the solution out, and compared the sweetness intensity at that time with that of the aqueous sucrose standard solution, and evaluated the sweetness intensity with a number in a range of 0 to 15."}}, "note": "Where a name gives a salt, the structure may show the parent alone."}
{"smiles": "CCCC/C=C/CCOS(=O)(=O)O", "note": "[trans-3-octenyl sulfate]", "values": [{"measurement": "Effect on aftertaste of sweetness remaining in the mouth", "setting": "[1]", "value": "reinforces the aftertaste of sweetness remaining in the mouth"}, {"measurement": "Effect on first taste of sweetness immediately after taking sucrose, aspartame, sucralose or glycyrrhizin", "setting": "[1]", "value": "inhibits the first taste of sweetness"}, {"measurement": "Effect of previous intake on the sweetness of the sweetener", "setting": "[2]", "value": "effect of reinforcing the sweetness of the sweetener"}]}
